{
  "source": "patent US20230094843A1",
  "about": "“PHARMACEUTICAL COMBINATION FOR TREATING TUMORS AND APPLICATION THEREOF” (FUKANG (SHANGHAI) HEALTH TECHNOLOGY CO., LTD, priority 2019, published 2023)",
  "key": {"[1]": {"test_system": "human-derived CD45+ cells (hCD45 cells)", "experiment": "FACS assay of hCD45 in peripheral blood 3 weeks after PBMC grafting", "assay_type": "in vivo, Mus Musculus, NCG", "conditions": "FIG. 4", "description": "Three weeks after PBMC grafting, peripheral blood of the mice was collected, and the proportion of human-derived CD45^+ cells (hCD45 cells) therein was determined by flow cytometry (FACS). After the end of study, the tumors was removed, weighed and photographed."}, "MDA-MB-436 tumor cells": {"test_system": "MDA-MB-436 tumor cells", "experiment": "PBMC humanized MDA-MB-436 subcutaneous tumor grafting model, tumor growth inhibition", "assay_type": "in vivo, Mus Musculus, NCG", "conditions": "for Tumor growth inhibition (%): PG-D24, TGI=(1-T/C)x100% from relative tumor volume, mefuparib HCl 40 mg/kg p.o., Tuoyi 10 mg/kg i.p.; for Tumor volume, Grouping (PG-D0): at grouping, start of treatment, mefuparib HCl 40 mg/kg p.o. qod, Tuoyi 10 mg/kg i.p. q4d; for Tumor volume, Administration (PG-D24): day 24 after grouping, mefuparib HCl 40 mg/kg p.o. qod x 13, Tuoyi 10 mg/kg i.p. q4d x 7", "description": "Species: Mus Musculus, NCG (NOD-Prkdc^em26Cd52II2rg^em26Cd22/N ju), female; weight: 18-22 g; quantity: 55; supplier: GemPharmatech.\nMDA-MB-436 tumor cells (YK-CL-075) were purchased from ATCC. The tumor cells were cultured in the Leibovitz's L-15 medium containing inactivated 10% fetal bovine serum, 100 U/mL of penicillin and 100 μg/mL of streptomycin in a 37° C./5% CO2 incubator, and were passaged every 3 to 4 days when the cells were overgrown. The tumor cells in logarithmic phase were used for in vivo tumor grafting.\nPBMCs (human peripheral blood mononuclear cells) were purchased from […] (Donor#: A0075).\nMDA-MB-436 tumor cells were resuspended in a 1:1 (v:v) mixture of PBS and Matrigel at a concentration of 1×10^8 cells/mL, and were grafted subcutaneously at the right flank of mice at 100 μL/mouse. When the tumor grew to about 1000 mm^3, the tumors were aseptically removed and cut into small pieces having dimensions of about 2 mm×2 mm×2 mm, which were grafted subcutaneously at the right flank of experimental animals. After 2 weeks, PBMCs were resuspended in PBS and grafted into mice in an amount of 2×10^6 cells/mouse. The animals were divided into 4 groups of 10 and treated (the day was recorded as PG-D0) when the tumor grew to about 93 mm^3.\nThe long and short diameters of the tumor were measured twice every week using a vernier caliper for calculating the tumor volume, and the calculation formula was: volume=0.5×long diameter×[…].\nThe T/C value was calculated from the tumor volume, where T is the mean relative tumor volume (RTV) of each treatment group and C is the mean RTV of the control group. RTV is the ratio of tumor volume after the treatment to that before the treatment. Tumor growth inhibition (TGI, %)=(1−T/C)×100%.\nInter-group statistical analysis was performed on tumor volume using IBM SPSS Statistics 22.0 software and mixed linear model analysis. Inter-group statistical analysis was performed on tumor weight using One-Way ANOVA analysis, with p<0.05 indicating significant differences."}, "[2]": {"test_system": "BRCA-mutant and HER2-negative advanced breast cancer", "conditions": "cited from earlier work"}, "Water solubility": {"experiment": "Water solubility", "assay_type": "physicochemical", "conditions": "times higher than that of olaparib"}, "[3]": {"conditions": "cited from earlier work"}, "[4]": {"conditions": "patients receiving olaparib monotherapy"}},
  "data": [
    {"molecule": "toripalimab [Tuoyi PD-1 monoclonal antibody injection]", "values": [
      {"measurement": "percentage median of hCD45 cells in peripheral blood compared with the control group", "setting": "[1]", "result": "higher than that in the control group"},
      {"measurement": "Tumor growth inhibition (%)", "setting": "MDA-MB-436 tumor cells", "result": 29, "unit": "%"},
      {"measurement": "Tumor volume, Grouping (PG-D0)", "setting": "MDA-MB-436 tumor cells", "result": "94 ± 7", "unit": "mm^3"},
      {"measurement": "Tumor volume, Administration (PG-D24)", "setting": "MDA-MB-436 tumor cells", "result": "1256 ± 252", "unit": "mm^3"}
    ]},
    {"molecule": "O=C(c1cc(Cc2n[nH]c(=O)c3ccccc23)ccc1F)N1CCN(C(=O)C2CC2)CC1", "note": "[olaparib]", "values": [
      {"measurement": "grade 3 adverse event: anemia", "setting": "[2]; associated with olaparib", "result": 12, "unit": "%"},
      {"measurement": "grade 3 adverse event: neutropenia", "setting": "[2]; associated with olaparib", "result": 6, "unit": "%"},
      {"measurement": "median PFS", "setting": "[2]; [4]", "result": 7.0, "unit": "months"},
      {"measurement": "response rate", "setting": "[2]; [4]", "result": 59.9, "unit": "%"}
    ]},
    {"molecule": "durvalumab", "values": [
      {"measurement": "grade 3 adverse event: pancreatitis", "setting": "[2]; associated with durvalumab", "result": 6, "unit": "%"}
    ]},
    {"molecule": "CNCc1ccc(-c2cc3cc(F)cc(C(N)=O)c3o2)cc1.Cl", "note": "[Mefuparib hydrochloride, mefuparib hydrochloride]", "values": [
      {"measurement": "percentage median of hCD45 cells in peripheral blood compared with the control group", "setting": "[1]", "result": "higher than that in the control group"},
      {"measurement": "water solubility relative to olaparib", "setting": "Water solubility", "result": 350, "unit": "times"},
      {"measurement": "water solubility", "setting": "[3]", "result": "> 35", "unit": "mg/mL"},
      {"measurement": "Tumor growth inhibition (%)", "setting": "MDA-MB-436 tumor cells; hydrochloride", "result": 54, "unit": "%"},
      {"measurement": "Tumor growth inhibition (%)", "setting": "MDA-MB-436 tumor cells; listed as mefuparib hydrochloride, hydrochloride", "result": 54, "unit": "%"},
      {"measurement": "Tumor volume, Grouping (PG-D0)", "setting": "MDA-MB-436 tumor cells", "result": "93 ± 6", "unit": "mm^3"},
      {"measurement": "Tumor volume, Administration (PG-D24)", "setting": "MDA-MB-436 tumor cells", "result": "761 ± 130", "unit": "mm^3"}
    ]}
  ]
}
